Measured values taken from patent US4698352A, “4-oxo-1,4-dihydronicotinic acid derivatives, salts thereof, and antibacterial agents containing the same” (Toyama Chemical Co., Ltd., priority 1982, dated 1987).
Values after ≈ are worked out from the molar mass of the structure shown. Like-named read-outs stand apart in the source and are kept apart here.

Assays:
[1] = Acute toxicity test (intravenous LD50); settings: mouse, in vivo, mice (ICR strain, male, 18-24 g)
Source text: The LD50 values of the representative compounds of this invention when administered intravenously to mice (ICR strain, male, 18-24 g) are shown in Table 2.

St. aureus F-137* = assay: Antibacterial activity (MIC), agar dilution; type: cell-based; settings: Staphylococcus aureus, 20 h
Source text: (§1) The amount of bacteria inoculated was 10^4 cells per plate (10^6 cells per ml).
(§2) * Penicillinase-producing bacteria

Ps. aeruginosa GN3379* = assay: Antibacterial activity (MIC), agar dilution; type: cell-based; settings: Pseudomonas aeruginosa, 20 h; Ps. aeruginosa GN3379, penicillinase-producing; 10^6 cells per ml; read-out: MIC
Source text: as §1, §2

Kl. pneumoniae Y-4* = assay: Antibacterial activity (MIC), agar dilution; type: cell-based; settings: Klebsiella pneumoniae, 20 h, Kl. pneumoniae Y-4, penicillinase-producing; 10^6 cells per ml; read-out: MIC
Source text: as §1, §2

E. coli TK-3* = assay: Antibacterial activity (MIC), agar dilution; type: cell-based; settings: Escherichia coli, 20 h, E. coli TK-3, penicillinase-producing; 10^6 cells per ml; read-out: MIC
Source text: as §1, §2

E. coli GN5482** = assay: Antibacterial activity (MIC), agar dilution; type: cell-based; settings: Escherichia coli, 20 h; E. coli GN5482, cephalospolinase-producing; 10^6 cells per ml; read-out: MIC
Source text: as §1
(§3) ** Cephalospolinase-producing bacteria

Pro. vulgaris GN76** = assay: Antibacterial activity (MIC), agar dilution; type: cell-based; settings: Proteus vulgaris
Source text: as §1, §3

Ps. aeruginosa GN918** = assay: Antibacterial activity (MIC), agar dilution; type: cell-based; settings: Pseudomonas aeruginosa, 20 h; Ps. aeruginosa GN918, cephalospolinase-producing; 10^6 cells per ml; read-out: MIC
Source text: as §1, §3

Pro. mirabilis T-111 = assay: Antibacterial activity (MIC), agar dilution; type: cell-based; settings: Proteus mirabilis, 37° C.
Source text: as §1

Pro. morganii T-216 = assay: Antibacterial activity (MIC), agar dilution; type: cell-based; settings: Morganella morganii, T216, 10^6 cells per ml, 37° C., 20 hours, read-out: MIC
Source text: as §1

St. aureus FDA209P = assay: Antibacterial activity (MIC), agar dilution; type: cell-based; settings: Staphylococcus aureus, FDA209P, 20 h
Source text: as §1

Ent. cloacae IID977 = assay: Antibacterial activity (MIC), agar dilution; type: cell-based; settings: Enterobacter cloacae, IID977, 20 h
Source text: as §1

Pro. vulgaris GN3027 = assay: Antibacterial activity (MIC), agar dilution; type: cell-based; settings: Proteus vulgaris, GN3027, 20 h, Pro. vulgaris GN3027; 10^6 cells per ml; 37° C., 20 hours; read-out: MIC
Source text: as §1

Kl. pneumoniae Y-41 = assay: Antibacterial activity (MIC), agar dilution; type: cell-based; settings: Klebsiella pneumoniae, Y41, 10^6 cells per ml, 37° C., 20 hours, read-out: MIC
Source text: as §1

Kl. pneumoniae Y-50 = assay: Antibacterial activity (MIC), agar dilution; type: cell-based; settings: Klebsiella pneumoniae, Y50, 20 h, 10^6 cells per ml, 37° C., read-out: MIC
Source text: as §1

E. coli TK-111 = assay: Antibacterial activity (MIC), agar dilution; type: cell-based; settings: Escherichia coli, TK111, 20 h, E. coli TK-111; 10^6 cells per ml; 37° C., 20 hours; read-out: MIC
Source text: as §1

Ps. aeruginosa IFO3445 = assay: Antibacterial activity (MIC), agar dilution; type: cell-based; settings: Pseudomonas aeruginosa; Ps. aeruginosa IFO3445; 10^6 cells per ml; 37° C., 20 hours; read-out: MIC
Source text: as §1

Aci. antitratus A-6 = assay: Antibacterial activity (MIC), agar dilution; type: cell-based; settings: 20 h, Aci. antitratus A-6; 10^6 cells per ml; 37° C., 20 hours; read-out: MIC
Source text: as §1

Ps. aeruginosa S-68 = assay: Antibacterial activity (MIC), agar dilution; type: cell-based; settings: Pseudomonas aeruginosa, S68; Ps. aeruginosa S-68; 10^6 cells per ml; 37° C., 20 hours; read-out: MIC
Source text: as §1

E. coli NIHJ JC-2 = assay: Antibacterial activity (MIC), agar dilution; type: cell-based; settings: Escherichia coli, NIHJJC2, 20 h
Source text: as §1

Cc1cc(O)ccc1-n1cc(C(=O)O)c(=O)cc1C1CCCCC1 [drawing 221]
LD50 [1]: > 200 mg/kg

CN(C)c1ccc(-c2cc(=O)c(C(=O)O)cn2-c2ccc(O)cc2)cc1 [drawing 217]
LD50 [1]: > 200 mg/kg

O=C(O)c1cn(-c2ccc(F)cc2)c(-c2ccc(NCCO)cc2)cc1=O [drawing 219]
LD50 [1]: > 200 mg/kg

O=C(O)c1cn(-c2ccc(F)cc2)c(C=Cc2cccnc2)cc1=O [drawing 215]
LD50 [1]: > 200 mg/kg

O=C(O)c1cn(-c2ccc(F)cc2)c(-c2ccc(Cl)s2)cc1=O
MIC (St. aureus F-137*): 3.13 µg/mL (≈ 8.95 µM)
MIC (Ps. aeruginosa GN3379*): 25 µg/mL (≈ 71.5 µM)
MIC (Kl. pneumoniae Y-4*): 25 µg/mL (≈ 71.5 µM)
MIC (E. coli TK-3*): 6.25 µg/mL (≈ 17.9 µM)
MIC (E. coli GN5482**): 0.39 µg/mL (≈ 1.12 µM)
MIC (Pro. vulgaris GN76**; GN76, 20 h): 3.13 µg/mL (≈ 8.95 µM)
MIC (Ps. aeruginosa GN918**): 100 µg/mL (≈ 286 µM)
MIC (Pro. mirabilis T-111; T111, 20 h, 10^6 cells per ml): 12.5 µg/mL (≈ 35.7 µM)
MIC (Pro. morganii T-216): 6.25 µg/mL (≈ 17.9 µM)
MIC (St. aureus FDA209P): 3.13 µg/mL (≈ 8.95 µM)
MIC (Ent. cloacae IID977): 12.5 µg/mL (≈ 35.7 µM)
MIC (Pro. vulgaris GN3027): 0.39 µg/mL (≈ 1.12 µM)
MIC (Kl. pneumoniae Y-41): 12.5 µg/mL (≈ 35.7 µM)
MIC (Kl. pneumoniae Y-50): 3.13 µg/mL (≈ 8.95 µM)
MIC (E. coli TK-111): 1.56 µg/mL (≈ 4.46 µM)
MIC (Ps. aeruginosa IFO3445): 50 µg/mL (≈ 143 µM)
MIC (Aci. antitratus A-6): 1.56 µg/mL (≈ 4.46 µM)
MIC (Ps. aeruginosa S-68): 25 µg/mL (≈ 71.5 µM)
MIC (E. coli NIHJ JC-2): 3.13 µg/mL (≈ 8.95 µM)

CC(=O)Oc1ccc(-n2cc(C(=O)OCC(O)CO)c(=O)cc2-c2ccc(N(C)C)cc2)cc1 (stereo not drawn)
MIC (St. aureus F-137*; St. aureus F-137, penicillinase-producing, 10^6 cells per ml, read-out: MIC): 1.56 µg/mL (≈ 3.34 µM)
MIC (Ps. aeruginosa GN3379*): 50 µg/mL (≈ 107 µM)
MIC (Kl. pneumoniae Y-4*): 25 µg/mL (≈ 53.6 µM)
MIC (E. coli TK-3*): 6.25 µg/mL (≈ 13.4 µM)
MIC (E. coli GN5482**): 0.1 µg/mL (≈ 0.214 µM)
MIC (Pro. vulgaris GN76**; 20 h, Pro. vulgaris GN76, cephalospolinase-producing, 10^6 cells per ml, read-out: MIC): 6.25 µg/mL (≈ 13.4 µM)
MIC (Ps. aeruginosa GN918**): 12.5 µg/mL (≈ 26.8 µM)
MIC (Pro. mirabilis T-111; T111, 10^6 cells per ml, 20 hours, read-out: MIC): 25 µg/mL (≈ 53.6 µM)
MIC (Pro. morganii T-216): 12.5 µg/mL (≈ 26.8 µM)
MIC (St. aureus FDA209P; St. aureus FDA209P, 10^6 cells per ml, 37° C., 20 hours, read-out: MIC): 1.56 µg/mL (≈ 3.34 µM)
MIC (Ent. cloacae IID977; Ent. cloacae IID977, 10^6 cells per ml, 37° C., 20 hours, read-out: MIC): 6.25 µg/mL (≈ 13.4 µM)
MIC (Pro. vulgaris GN3027): 0.78 µg/mL (≈ 1.67 µM)
MIC (Kl. pneumoniae Y-41): 25 µg/mL (≈ 53.6 µM)
MIC (Kl. pneumoniae Y-50): 3.13 µg/mL (≈ 6.71 µM)
MIC (E. coli TK-111): 0.78 µg/mL (≈ 1.67 µM)
MIC (Ps. aeruginosa IFO3445): 50 µg/mL (≈ 107 µM)
MIC (Aci. antitratus A-6): 1.56 µg/mL (≈ 3.34 µM)
MIC (Ps. aeruginosa S-68): 25 µg/mL (≈ 53.6 µM)
MIC (E. coli NIHJ JC-2): 3.13 µg/mL (≈ 6.71 µM)
